Test results reported in US20080064681A1, “Therapeutic agent for treating glaucoma” (priority 2006, published 2008).
Structures can show the parent of a compound that is named as a salt.

Key:
[1] = test system: intraocular pressure in rabbits; assay: Intraocular pressure measurement after instillation of eye drops in rabbits; type: in vivo, rabbit (NZW, male); details: for time after instillation of maximum intraocular-pressure-reducing effect: 1% eye drops in phosphate buffer pH 7.0, 0.05 ml into right eye; for time after instillation of maximum intraocular-pressure-reducing effect / period of intraocular-pressure-reducing effect longer than that for the compound M / inhibition in vivo at 1 % / intraocular-pressure-reducing effect relative to that of the compound M: rabbit; for period of intraocular-pressure-reducing effect longer than that for the compound M / inhibition in vivo at 1 %: 1% eye drops; for inhibition in vivo at 1 %: Oryctolagus cuniculus, topical, 2 h, 120 minutes after instillation, read-out: maximum intraocular-pressure-reducing effect, intraocular pressure lower than that of the control eye; for intraocular-pressure-reducing effect relative to that of the compound M: after 120 minutes from the instillation
Description: Eye drops were prepared by dissolving each compound (1.0 g) in a phosphate buffer solution which was prepared by dissolving 0.8 g of sodium dihydrogen phosphate and 0.5 g of sodium chloride in purified water such that the final weight was 100 g. The pH was adjusted to 7.0 with sodium hydroxide.
As a control, a phosphate buffer solution (pH 7.0) in which 1.0 g of the compound M was not dissolved was used.
Each rabbit (NZW, male, 2.5 to 3.0 kg) was secured in a holder. One of the preparations (0.05 ml) was instilled into the right eye, and the phosphate buffer as control (0.05 ml) was instilled into the left eye. The intraocular pressures were measured serially using a TonoLab handheld mobile tonometer manufactured by Tiolat. The ratios to the control values were calculated and plotted with time (refer to figures).
Eye drops were prepared by dissolving the compound (S)-hexahydro-1-(4-fluoroisoquinoline-5-sulfonyl)-4-glycyl-2-methyl-1H-1,4-diazepine dihydrochloride (1.0 g) in 1.0 g of dimethyl sulfoxide and adding the resulting solution to a boric acid solution prepared by dissolving 2.0 g of boric acid in purified water such that the final weight was 100 g. The pH was adjusted to 7.0 with sodium hydroxide.
The eye drops were administered to a rabbit as in Example 1, and the intraocular pressures were measured.

[2] = target: T1, recombinant ROCK II (1-602) (Homo sapiens, UniProt O75116); assay: Rho-kinase assay (phosphate incorporation, [γ-32P]ATP, RSK peptide); type: biochemical; details: 10 nM ROCK II, 10 μM ATP, 30° C., 10 minutes
T1 construct: made in house; host or cells: Sf9 insect cells
T1 sequence (O75116 1-602): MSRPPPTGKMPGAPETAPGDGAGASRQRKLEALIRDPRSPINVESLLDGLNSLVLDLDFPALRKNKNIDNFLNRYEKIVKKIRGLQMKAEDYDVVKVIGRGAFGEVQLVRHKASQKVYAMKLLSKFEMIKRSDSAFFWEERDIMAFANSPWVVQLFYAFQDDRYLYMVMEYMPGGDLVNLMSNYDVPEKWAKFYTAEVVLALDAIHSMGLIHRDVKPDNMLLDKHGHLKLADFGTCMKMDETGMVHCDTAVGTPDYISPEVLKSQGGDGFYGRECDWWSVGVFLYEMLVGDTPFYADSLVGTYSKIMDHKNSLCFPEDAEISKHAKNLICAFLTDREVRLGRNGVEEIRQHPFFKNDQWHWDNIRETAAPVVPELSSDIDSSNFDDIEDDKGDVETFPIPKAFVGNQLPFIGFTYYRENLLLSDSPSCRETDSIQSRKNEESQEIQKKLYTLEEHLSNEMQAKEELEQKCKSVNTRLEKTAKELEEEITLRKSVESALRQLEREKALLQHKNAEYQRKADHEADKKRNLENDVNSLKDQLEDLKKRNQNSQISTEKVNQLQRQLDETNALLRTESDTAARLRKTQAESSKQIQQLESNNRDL
Description: Rho-kinase assays were performed using the compounds in various concentrations and the 50% inhibitory concentrations (hereinafter referred to as the “IC50 value”) of the compounds for Rho-kinase were calculated. In the Rho-kinase assay, phosphorylation reaction was performed using an activated form of recombinant ROCK II (1-602) obtained by expressing human ROCK II cDNA in Sf9 cells […], and the phosphate incorporation activity was defined as the Rho-kinase activity. Namely, the compounds were each added to a reaction solution containing 50 mM Tris-HCL (ph 7.4), […], 2 mM EDTA, 2 mM EGTA, 0.1% tween 20, 50 μM RSK peptide, 10 μM [γ-^32P]ATP, and 10 nM ROCK II, and the reaction was allowed to proceed at 30° C. for 10 minutes. The reaction mixture was spotted on phosphocellulose paper, and the reaction was stopped by dipping the phosphocellulose paper into a phosphoric acid solution. The phosphocellulose paper was washed with the phosphoric acid solution, and then radioactivity was measured with a liquid scintillation counter.
An Rho-kinase assay was performed, and the 50% inhibitory concentration (hereinafter referred to as the “IC50 value”) was calculated. The IC50 value of the reference compound (S)-hexahydro-1-(4-fluoroisoquinoline-5-sulfonyl)-4-glycyl-2-methyl-1H-1,4-diazepine dihydrochloride for Rho-kinase is shown in Table 2.

[3] = test system: intraocular pressure in rabbits; details: literature reports; cited from earlier work

| IC50 [2] | Compound | time after instillation of maximum intraocular-pressure-reducing effect [1] | period of intraocular-pressure-reducing effect longer than that for the compound M [1] | inhibition in vivo at 1 % [1] | intraocular-pressure-reducing effect relative to that of the compound M [1] | effect on intraocular pressure in rabbits (reported) [3] | intraocular-pressure-reducing effect ([1]; 1% eye drops in dimethyl sulfoxide / boric acid solution pH 7.0, rabbit) |
| --- | --- | --- | --- | --- | --- | --- | --- |
| 634 nM | C[C@H]1CNCCN1S(=O)(=O)c1cccc2cncc(Br)c12 [Compound B6, 2-(S)-1-(4-bromoisoquinoline-5-sulfonyl)-2-methylpiperazine dihydrochloride] | 120 min | about 2 hours | 26% | substantially the same as that of the compound M | – | – |
| 28.4 nM | C[C@H]1CNCCCN1S(=O)(=O)c1cccc2cncc(Br)c12 [Compound B7, (S)-hexahydro-1-(4-bromoisoquinoline-5-sulfonyl)-2-methyl-1H-1,4-diazepine dihydrochloride] | 120 min | about 5 hours | 56% | 2.0 times | – | – |
| 48.5 nM | C[C@H]1CNCCCCN1S(=O)(=O)c1cccc2cncc(Br)c12 [Compound B8, (S)-octahydro-1-(4-bromoisoquinoline-5-sulfonyl)-2-methyl-1,4-diazocine dihydrochloride] | 120 min | about 1 hours | 47% | 1.7 times | – | – |
| 25.8 nM | C[C@H]1CNCCCN1S(=O)(=O)c1cccc2cncc(Cl)c12 [Compound C7, (S)-hexahydro-1-(4-chloroisoquinoline-5-sulfonyl)-2-methyl-1H-1,4-diazepine dihydrochloride] | 120 min | about 3 hours | 54% | 1.9 times | – | – |
| 21.1 nM | C[C@H]1CNCCCCN1S(=O)(=O)c1cccc2cncc(Cl)c12 [Compound C8, (S)-octahydro-1-(4-chloroisoquinoline-5-sulfonyl)-2-methyl-1,4-diazocine dihydrochloride] | 120 min | substantially the same as that for the compound M | 35% | 1.3 times | – | – |
| 85 nM | C[C@H]1CNCCCN1S(=O)(=O)c1cccc2cncc(F)c12 [Compound F7, (S)-hexahydro-1-(4-fluoroisoquinoline-5-sulfonyl)-2-methyl-1H-1,4-diazepine dihydrochloride] | 120 min | about 3 hours | 45% | 1.9 times | – | – |
| 39.1 nM | C[C@H]1CNCCCCN1S(=O)(=O)c1cccc2cncc(F)c12 [Compound F8, (S)-octahydro-1-(4-fluoroisoquinoline-5-sulfonyl)-2-methyl-1,4-diazocine dihydrochloride] | 120 min | about 1 hours | 45% | 1.6 times | – | – |
| – | C[C@@H](N)[C@H]1CC[C@H](C(=O)Nc2ccncc2)CC1 [Compound Y-27632] | – | – | – | – | reduce intraocular pressure in rabbits | – |
| – | O=S(=O)(c1cccc2cnccc12)N1CCCNCC1 [HA-1077] | – | – | – | – | reduce intraocular pressure in rabbits | – |
| 19.5 nM | C#Cc1cncc2cccc(S(=O)(=O)N3CCCNC[C@@H]3C)c12.Cl.Cl [M, (S)-hexahydro-1-(4-ethynylisoquinoline-5-sulfonyl)-2-methyl-1 H-1,4-diazepine dihydrochloride, reference compound] | 120 min | – | 28% | – | – | – |
| 54 nM | C[C@H]1CN(C(=O)CN)CCCN1S(=O)(=O)c1cccc2cncc(F)c12.Cl.Cl [Reference Compound, (S)-hexahydro-1-(4-fluoroisoquinoline-5-sulfonyl)-4-glycyl-2-methyl-1H-1,4-diazepine dihydrochloride, reference compound] | – | – | – | – | – | a statistically significant intraocular-pressure-reducing effect was not observed |
